Test results from the supplement of paper PMC5908809.

Columns and labels:
[1] = test system: SNK-6 (IL-2 2.5 ng/mL); test: relative IC50 (inflection point of fitted viability curve, relative to fitted max inhibition); higher = less sensitive; conditions: 72 h
Procedure: (§1)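 Drug sensitivity and resistance testing: 5 concentrations over a 10,000-fold range, 72 h at 37 °C, viability by CellTiter-Glo normalised to DMSO and benzethonium chloride controls. IC50 is the inflection point of a logistic fit (min fixed at 0, max fitted), so it is relative to the fitted maximal inhibition. Kept only where fitted max inhibition is at least 50%.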

[2] = test system: DERL-7 (IL-2 2.5 ng/mL); test: as above; conditions: 72 h
Procedure: as §1

[3] = test system: NKL (IL-2 2.5 ng/mL); test: as above; conditions: 72 h
Procedure: as §1

[4] = test system: KHYG-1 (IL-2 2.5 ng/mL); test: as above; conditions: 72 h
Procedure: as §1

[5] = test system: normal primary NK cells, pool 1 (3 donors), resting (IL-2 0 ng/mL); test: percent inhibition of viability; higher = more inhibition; conditions: 72 h
[6] = test system: normal primary NK cells, pool 3 (3 donors) (IL-2 2.5 ng/mL); test: as above; conditions: 72 h
[7] = test system: normal primary NK cells, pool 2 (3 donors) (IL-2 2.5 ng/mL); test: as above; conditions: 72 h
[8] = test system: IMC-1 (IL-2 20 ng/mL); test: as above; conditions: 72 h
[9] = test system: SNK-6 (IL-2 2.5 ng/mL); test: as above; conditions: 72 h
[10] = test system: NKL (IL-2 2.5 ng/mL); test: as above; conditions: 72 h
[11] = test system: KHYG-1 (IL-2 2.5 ng/mL); test: as above; conditions: 72 h
[12] = test system: NK-92 (IL-2 2.5 ng/mL); test: as above; conditions: 72 h
[13] = test system: normal primary NK cells, pool 1 (3 donors) (IL-2 2.5 ng/mL); test: as above; conditions: 72 h
[14] = test system: NK-YS (IL-2 2.5 ng/mL); test: as above; conditions: 72 h
[15] = test system: YT (IL-2 2.5 ng/mL); test: as above; conditions: 72 h
[16] = test system: KAI3 (IL-2 2.5 ng/mL); test: as above; conditions: 72 h
[17] = test system: DERL-7 (IL-2 2.5 ng/mL); test: as above; conditions: 72 h
[18] = test system: normal NK cells expanded with K562-aAPC; test: as above; conditions: 72 h, IL-2 2.5 ng/mL
Procedure: (§2)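 Drug sensitivity and resistance testing on K562-aAPC-expanded normal NK cells: 5 concentrations (10-fold steps over a 10,000-fold range), 72 h at 37 °C, viability by CellTiter-Glo normalised to DMSO and benzethonium chloride controls; DSS from the fitted curve.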

[19] = test system: normal NK cells expanded with K562-aAPC; test: drug sensitivity score (DSS) (DSS units); higher = more sensitive; extreme values may be limits of the assay; conditions: 72 h; IL-2 2.5 ng/mL
Procedure: as §2

[20] = test system: normal primary NK cells, pool 1 (3 donors), resting (IL-2 0 ng/mL); test: as above; conditions: 72 h
[21] = test system: normal primary NK cells, pool 3 (3 donors) (IL-2 2.5 ng/mL); test: as above; conditions: 72 h
[22] = test system: normal primary NK cells, pool 2 (3 donors) (IL-2 2.5 ng/mL); test: as above; conditions: 72 h
[23] = test system: IMC-1 (IL-2 20 ng/mL); test: as above; conditions: 72 h
[24] = test system: SNK-6 (IL-2 2.5 ng/mL); test: as above; conditions: 72 h
[25] = test system: NKL (IL-2 2.5 ng/mL); test: as above; conditions: 72 h
[26] = test system: KHYG-1 (IL-2 2.5 ng/mL); test: as above; conditions: 72 h
[27] = test system: NK-92 (IL-2 2.5 ng/mL); test: as above; conditions: 72 h
[28] = test system: normal primary NK cells, pool 1 (3 donors) (IL-2 2.5 ng/mL); test: as above; conditions: 72 h
[29] = test system: NK-YS (IL-2 2.5 ng/mL); test: as above; conditions: 72 h
[30] = test system: YT (IL-2 2.5 ng/mL); test: as above; conditions: 72 h
[31] = test system: KAI3 (IL-2 2.5 ng/mL); test: as above; conditions: 72 h
[32] = test system: DERL-7 (IL-2 2.5 ng/mL); test: as above; conditions: 72 h

SMILES: COc1cc2ncnc(Oc3cccc(NC(=O)Nc4cc(C(C)(C)C(F)(F)F)on4)c3)c2cc1OC
- relative IC50 [1]: > 10000 nM

SMILES: COc1cc(C(=O)NC2CCN(C)CC2)c(F)cc1Nc1ncc2c(n1)N(C1CCCC1)CC(F)(F)C(=O)N2C [TAK-960]
- relative IC50 [2]: > 2500 nM

SMILES: Cc1ccc(NC(=O)c2ccc(CN3CC[C@H](N(C)C)C3)c(C(F)(F)F)c2)cc1Nc1nccc(-c2cncnc2)n1 [Bafetinib]
- relative IC50 [3]: 136 nM

SMILES: O[C@H]1CC[C@H](Nc2ncc3nc(Nc4c(F)cc(F)cc4F)n([C@H]4CCOC4)c3n2)CC1 [Tanzisertib]
- relative IC50 [1]: > 10000 nM

SMILES: CN1CCN(C2CCN(C(=O)Nc3cc(Oc4ccc(NC(=O)C5(C(=O)Nc6ccc(F)cc6)CC5)c(F)c4)ccn3)CC2)CC1 [Golvatinib]
- relative IC50 [4]: 715 nM

SMILES: Cc1nc(Nc2ncc(C(=O)Nc3c(C)cccc3Cl)s2)cc(N2CCN(CCO)CC2)n1 [Dasatinib]
- relative IC50 [3]: 49.8 nM

SMILES: COc1cc(Nc2c(C#N)cnc3cc(OCCCN4CCN(C)CC4)c(OC)cc23)c(Cl)cc1Cl [Bosutinib] (max concentration tested 10000 nM)
- percent inhibition of viability ([5]; 1 nM): -6.19%
- percent inhibition of viability ([5]; 10 nM): -3.78%
- percent inhibition of viability ([5]; 100 nM): 1.15%
- percent inhibition of viability ([5]; 1000 nM): 58.5%
- percent inhibition of viability ([5]; 10000 nM): 99.3%
- percent inhibition of viability ([6]; 1 nM): 0.05%
- percent inhibition of viability ([6]; 10 nM): -0.81%
- percent inhibition of viability ([6]; 100 nM): 10.8%
- percent inhibition of viability ([6]; 1000 nM): -5.33%
- percent inhibition of viability ([6]; 10000 nM): 99.8%
- percent inhibition of viability ([7]; 1 nM): -12.2%
- percent inhibition of viability ([7]; 10 nM): -5.59%
- percent inhibition of viability ([7]; 100 nM): -2.85%
- percent inhibition of viability ([7]; 1000 nM): 25.5%
- percent inhibition of viability ([7]; 10000 nM): 98.1%
- percent inhibition of viability ([8]; 1 nM): -6.46%
- percent inhibition of viability ([8]; 10 nM): 0.66%
- percent inhibition of viability ([8]; 100 nM): -10.5%
- percent inhibition of viability ([8]; 1000 nM): -9.81%
- percent inhibition of viability ([8]; 10000 nM): 96.6%
- percent inhibition of viability ([9]; 1 nM): 6.03%
- percent inhibition of viability ([9]; 10 nM): 14.6%
- percent inhibition of viability ([9]; 100 nM): -18.2%
- percent inhibition of viability ([9]; 1000 nM): -17.4%
- percent inhibition of viability ([9]; 10000 nM): 99.7%
- percent inhibition of viability ([10]; 1 nM): -12.2%
- percent inhibition of viability ([10]; 10 nM): -8.59%
- percent inhibition of viability ([10]; 100 nM): -6.88%
- percent inhibition of viability ([10]; 1000 nM): 0.83%
- percent inhibition of viability ([10]; 10000 nM): 95.5%
- percent inhibition of viability ([11]; 1 nM): -3.69%
- percent inhibition of viability ([11]; 10 nM): 1.01%
- percent inhibition of viability ([11]; 100 nM): -1.05%
- percent inhibition of viability ([11]; 1000 nM): 26.2%
- percent inhibition of viability ([11]; 10000 nM): 96.2%
- percent inhibition of viability ([12]; 1 nM): -0.68%
- percent inhibition of viability ([12]; 10 nM): -2.8%
- percent inhibition of viability ([12]; 100 nM): -0.62%
- percent inhibition of viability ([12]; 1000 nM): 22.4%
- percent inhibition of viability ([12]; 10000 nM): 97.7%
- percent inhibition of viability ([13]; 1 nM): -9.61%
- percent inhibition of viability ([13]; 10 nM): -1.56%
- percent inhibition of viability ([13]; 100 nM): 4.38%
- percent inhibition of viability ([13]; 1000 nM): 20.6%
- percent inhibition of viability ([13]; 10000 nM): 100%
- percent inhibition of viability ([14]; 1 nM): -4.4%
- percent inhibition of viability ([14]; 10 nM): -3.22%
- percent inhibition of viability ([14]; 100 nM): -2.75%
- percent inhibition of viability ([14]; 1000 nM): 2.53%
- percent inhibition of viability ([14]; 10000 nM): 96.7%
- percent inhibition of viability ([15]; 1 nM): 1.55%
- percent inhibition of viability ([15]; 10 nM): 1.24%
- percent inhibition of viability ([15]; 100 nM): 2.37%
- percent inhibition of viability ([15]; 1000 nM): 15.2%
- percent inhibition of viability ([15]; 10000 nM): 97.2%
- percent inhibition of viability ([16]; 1 nM): 8.38%
- percent inhibition of viability ([16]; 10 nM): 12%
- percent inhibition of viability ([16]; 100 nM): 3.26%
- percent inhibition of viability ([16]; 1000 nM): 31.6%
- percent inhibition of viability ([16]; 10000 nM): 97.2%
- percent inhibition of viability ([17]; 1 nM): 1.55%
- percent inhibition of viability ([17]; 10 nM): 6.21%
- percent inhibition of viability ([17]; 100 nM): 8.26%
- percent inhibition of viability ([17]; 1000 nM): 37.4%
- percent inhibition of viability ([17]; 10000 nM): 100%
- percent inhibition of viability ([18]; 1 nM): 4.72%
- percent inhibition of viability ([18]; 10 nM): 2.21%
- percent inhibition of viability ([18]; 100 nM): 15.7%
- percent inhibition of viability ([18]; 1000 nM): 3.76%
- percent inhibition of viability ([18]; 10000 nM): 99.9%
- drug sensitivity score [19]: 6.07
- drug sensitivity score [20]: 12.4
- drug sensitivity score [21]: 5.14
- drug sensitivity score [22]: 9.3
- drug sensitivity score [23]: 4.71
- drug sensitivity score [24]: 4.57
- drug sensitivity score [25]: 5.43
- drug sensitivity score [26]: 9.26
- drug sensitivity score [27]: 8.9
- drug sensitivity score [28]: 8.82
- drug sensitivity score [29]: 5.71
- drug sensitivity score [30]: 7.9
- drug sensitivity score [31]: 9.81
- drug sensitivity score [32]: 9.96
